Assay [1] addresses T1, OSM-9–OCR-4 TRPV channel (Caenorhabditis elegans, UniProt G5EBV8+Q9N3Y9).
T1 construct: untagged cDNAs (osm-9 in pGEMHE, ocr-4 in pOX); cRNAs co-injected in Xenopus oocytes; heterotetramer, likely 2:2
T1 sequence (G5EBV8 1-937): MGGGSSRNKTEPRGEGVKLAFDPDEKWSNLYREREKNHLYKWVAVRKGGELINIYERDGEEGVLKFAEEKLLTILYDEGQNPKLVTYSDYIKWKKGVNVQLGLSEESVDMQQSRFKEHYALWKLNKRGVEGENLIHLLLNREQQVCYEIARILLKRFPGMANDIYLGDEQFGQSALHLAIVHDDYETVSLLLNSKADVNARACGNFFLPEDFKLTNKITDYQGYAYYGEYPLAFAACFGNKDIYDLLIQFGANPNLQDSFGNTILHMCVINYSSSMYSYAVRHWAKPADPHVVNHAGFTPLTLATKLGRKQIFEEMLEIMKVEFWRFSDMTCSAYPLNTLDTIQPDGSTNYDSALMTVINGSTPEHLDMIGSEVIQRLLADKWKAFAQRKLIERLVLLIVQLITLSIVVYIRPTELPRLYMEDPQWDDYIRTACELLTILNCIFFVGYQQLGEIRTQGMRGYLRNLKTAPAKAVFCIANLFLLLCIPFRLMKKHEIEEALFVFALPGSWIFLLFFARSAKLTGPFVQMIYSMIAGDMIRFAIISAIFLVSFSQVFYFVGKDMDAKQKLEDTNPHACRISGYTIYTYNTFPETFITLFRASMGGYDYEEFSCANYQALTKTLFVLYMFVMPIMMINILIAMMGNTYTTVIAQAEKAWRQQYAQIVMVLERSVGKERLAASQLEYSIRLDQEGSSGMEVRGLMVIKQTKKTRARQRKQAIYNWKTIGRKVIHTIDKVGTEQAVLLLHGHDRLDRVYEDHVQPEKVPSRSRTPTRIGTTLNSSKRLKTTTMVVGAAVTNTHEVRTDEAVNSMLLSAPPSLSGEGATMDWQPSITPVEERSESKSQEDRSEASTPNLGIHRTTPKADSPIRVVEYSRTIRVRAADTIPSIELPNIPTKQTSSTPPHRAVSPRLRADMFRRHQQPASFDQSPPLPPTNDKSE
T1 sequence (Q9N3Y9 1-756): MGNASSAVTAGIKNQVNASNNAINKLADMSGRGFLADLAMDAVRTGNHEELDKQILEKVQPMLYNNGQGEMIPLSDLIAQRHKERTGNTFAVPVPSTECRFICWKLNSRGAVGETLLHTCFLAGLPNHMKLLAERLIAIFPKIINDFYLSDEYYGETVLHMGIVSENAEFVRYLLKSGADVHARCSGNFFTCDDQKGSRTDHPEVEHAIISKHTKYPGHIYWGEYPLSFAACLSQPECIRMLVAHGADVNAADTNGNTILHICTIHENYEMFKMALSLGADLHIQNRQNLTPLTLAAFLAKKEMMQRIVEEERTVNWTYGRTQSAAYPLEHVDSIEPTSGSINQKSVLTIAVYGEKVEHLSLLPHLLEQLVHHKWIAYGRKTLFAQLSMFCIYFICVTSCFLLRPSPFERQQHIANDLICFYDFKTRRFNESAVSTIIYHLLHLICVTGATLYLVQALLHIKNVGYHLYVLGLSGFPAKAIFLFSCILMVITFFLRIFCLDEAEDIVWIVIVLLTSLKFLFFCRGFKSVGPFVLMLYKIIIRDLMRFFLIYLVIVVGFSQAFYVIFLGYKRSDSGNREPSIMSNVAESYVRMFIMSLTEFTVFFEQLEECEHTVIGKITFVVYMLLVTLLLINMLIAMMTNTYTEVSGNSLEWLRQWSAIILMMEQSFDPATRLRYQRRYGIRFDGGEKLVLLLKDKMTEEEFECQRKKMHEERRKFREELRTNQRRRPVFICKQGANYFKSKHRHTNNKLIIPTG
The assay is described as follows: two-electrode voltage clamp, Xenopus oocytes, Hill fit. The class given is cell-based. The settings on record: read-out: K1/2. In general terms: Two-electrode voltage clamp is typically applied to oocytes expressing channels or transporters.

Assay [2] has as its target T2, Nan–Iav TRPV channel (Drosophila melanogaster, UniProt Q9VUD5+Q9W3W0).
T2 construct: iav cDNA in pCR4-TOPO, synthesized nan cDNA in pcDNA3.1; cRNAs co-injected in Xenopus oocytes; heteromeric channel
T2 sequence (Q9VUD5 1-833): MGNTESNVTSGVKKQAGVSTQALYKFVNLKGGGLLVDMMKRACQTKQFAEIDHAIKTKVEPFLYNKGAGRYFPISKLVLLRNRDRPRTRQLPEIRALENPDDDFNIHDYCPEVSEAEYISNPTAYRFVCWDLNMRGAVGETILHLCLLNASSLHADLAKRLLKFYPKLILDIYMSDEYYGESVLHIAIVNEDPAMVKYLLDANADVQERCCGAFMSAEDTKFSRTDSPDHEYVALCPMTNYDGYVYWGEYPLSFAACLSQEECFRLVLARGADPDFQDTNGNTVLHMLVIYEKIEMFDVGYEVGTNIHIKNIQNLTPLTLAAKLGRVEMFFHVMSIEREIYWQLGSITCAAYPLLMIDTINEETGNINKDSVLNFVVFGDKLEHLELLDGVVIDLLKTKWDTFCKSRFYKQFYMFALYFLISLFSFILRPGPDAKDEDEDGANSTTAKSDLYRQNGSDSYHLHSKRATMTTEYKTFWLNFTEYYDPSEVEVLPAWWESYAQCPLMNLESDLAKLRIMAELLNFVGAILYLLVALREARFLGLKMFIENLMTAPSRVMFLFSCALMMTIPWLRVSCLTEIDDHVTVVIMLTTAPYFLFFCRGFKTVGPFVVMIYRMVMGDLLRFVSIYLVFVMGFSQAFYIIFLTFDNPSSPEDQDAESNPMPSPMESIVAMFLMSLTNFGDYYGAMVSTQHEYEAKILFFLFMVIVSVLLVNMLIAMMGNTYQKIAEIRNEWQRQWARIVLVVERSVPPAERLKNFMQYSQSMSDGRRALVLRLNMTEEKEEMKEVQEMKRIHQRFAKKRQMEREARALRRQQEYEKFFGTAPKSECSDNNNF
T2 sequence (Q9W3W0 1-1123): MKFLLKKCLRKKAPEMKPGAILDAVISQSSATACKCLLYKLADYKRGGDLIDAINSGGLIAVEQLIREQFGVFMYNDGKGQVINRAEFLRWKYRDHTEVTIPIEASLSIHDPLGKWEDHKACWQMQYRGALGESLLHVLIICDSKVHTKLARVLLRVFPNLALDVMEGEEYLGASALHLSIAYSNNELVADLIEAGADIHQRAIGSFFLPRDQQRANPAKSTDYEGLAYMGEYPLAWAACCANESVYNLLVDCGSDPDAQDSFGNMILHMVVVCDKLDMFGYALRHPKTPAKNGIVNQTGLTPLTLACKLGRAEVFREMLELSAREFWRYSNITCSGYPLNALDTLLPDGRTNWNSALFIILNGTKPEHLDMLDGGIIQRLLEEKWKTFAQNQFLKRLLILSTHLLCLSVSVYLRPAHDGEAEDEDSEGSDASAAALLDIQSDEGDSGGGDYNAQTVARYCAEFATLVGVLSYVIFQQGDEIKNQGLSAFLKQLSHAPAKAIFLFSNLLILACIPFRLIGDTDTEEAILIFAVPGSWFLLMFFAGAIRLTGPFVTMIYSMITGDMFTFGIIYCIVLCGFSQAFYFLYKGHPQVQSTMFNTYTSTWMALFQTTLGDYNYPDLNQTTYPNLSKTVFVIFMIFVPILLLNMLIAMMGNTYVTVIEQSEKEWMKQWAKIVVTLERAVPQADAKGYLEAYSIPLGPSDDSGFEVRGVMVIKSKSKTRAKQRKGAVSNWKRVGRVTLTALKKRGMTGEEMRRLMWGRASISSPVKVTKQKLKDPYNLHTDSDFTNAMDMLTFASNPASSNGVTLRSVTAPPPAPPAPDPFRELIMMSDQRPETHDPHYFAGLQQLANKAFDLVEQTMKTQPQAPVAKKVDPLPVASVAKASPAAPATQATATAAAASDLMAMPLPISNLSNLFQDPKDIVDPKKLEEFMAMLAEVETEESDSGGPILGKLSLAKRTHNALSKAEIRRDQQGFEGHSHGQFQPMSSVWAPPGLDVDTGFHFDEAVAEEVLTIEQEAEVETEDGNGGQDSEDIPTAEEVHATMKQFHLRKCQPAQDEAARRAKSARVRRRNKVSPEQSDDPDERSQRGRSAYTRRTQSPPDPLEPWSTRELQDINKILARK
The description is as above. In kind it is cell-based. The settings on record: read-out: K1/2.

As for `NC(=O)c1cccnc1` [nicotinamide], the EC50 in assay [1] came to 63.3 ± 13.2 µM; in assay [2], 14.4 ± 1 µM.
